Measurements: ChEMBL document CHEMBL1268928, “Design and synthesis of novel pyrimidine hydroxamic acid inhibitors of histone deacetylases” (Bioorg Med Chem Lett, 2010)

Experiments:
[1] = biological target: Histone deacetylase; experiment: Inhibition of HDAC in human HeLa cell nuclear extracts by fluorimetric assay; format: protein assay
[2] = system: HCT-116; experiment: cells; format: functional; settings: Homo sapiens, HCT-116, 72 h
Description: Growth inhibition of human HCT116 cells after 72 hrs by SRB assay

[3] = system: HeLa; experiment: cells; format: functional; settings: Homo sapiens, 72 h
Description: Growth inhibition of human HeLa cells after 72 hrs by SRB assay

[4] = system: U-937; experiment: cells; format: functional; settings: Homo sapiens, U-937, 72 h
Description: Growth inhibition of human U937 cells after 72 hrs by SRB assay

[5] = system: HuT78; experiment: cells; format: functional; settings: Homo sapiens, HuT78, 72 h
Description: Growth inhibition of human HUT78 cells after 72 hrs by SRB assay

[6] = system: HeLa; experiment: Growth inhibition of human HeLa cells at 10 uM after 72 hrs by SRB assay; format: functional; settings: read-out: GI

O=C(NO)c1ccc(N2C[C@H]3CN(Cc4ccc5ccccc5c4)C[C@H]3C2)nc1
IC50 [1]: 45 nM
GI50 [2]: 700 nM
GI50 [3]: 1260 nM
GI50 [4]: 450 nM
GI50 [5]: 340 nM

O=C(NO)c1cnc(N2C[C@@H]3CN(S(=O)(=O)c4cc(C(F)(F)F)cc(C(F)(F)F)c4)C[C@@H]3C2)nc1
IC50 [1]: 433 nM
GI50 [2]: 1700 nM
GI50 [4]: 1250 nM
GI50 [5]: 700 nM
inhibition of growth at 10 µM [6]: 42%

O=C(NO)c1cnc(N2C[C@@H]3CN(S(=O)(=O)c4ccc(OC(F)(F)F)cc4)C[C@@H]3C2)nc1
IC50 [1]: 123 nM
GI50 [2]: 530 nM
GI50 [3]: 940 nM
GI50 [4]: 980 nM
GI50 [5]: 500 nM

O=C(NO)c1cnc(N2C[C@H]3CN(C(=O)c4ccc5ccccc5c4)C[C@H]3C2)nc1
IC50 [1]: 12 nM
GI50 [2]: 590 nM
GI50 [3]: 210 nM
GI50 [4]: 390 nM
GI50 [5]: 200 nM

O=C(NO)c1cnc(N2C[C@H]3CN(C(=O)CCCOc4ccccc4)C[C@H]3C2)nc1
IC50 [1]: 122 nM
GI50 [2]: 1800 nM
GI50 [3]: 3950 nM
GI50 [4]: 900 nM
GI50 [5]: 800 nM
